Series [1] has as its system fli1:EGFP zebrafish embryos (intersegmental vessel growth). In words: fli1:EGFP zebrafish embryo angiogenesis assay. The series is classed as in vivo. On the set-up: fli1:EGFP angiogenesis n (survived/tested): concentration or dose not given beside the values. Particulars: for minimal effective concentration: Danio rerio, lowest concentration producing an effect, compounds not producing an effect shown at the highest evaluated concentration; for fli1:EGFP angiogenesis n (survived/tested): embryos alive after 24 hours of exposure. The essentials: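 fli1:EGFP embryos grown 24 hpf, dechorionated and exposed to compound or vehicle over a range of concentrations for up to 24 h, with CPS49 as positive control. Imaged at 48 hpf for intersegmental vessel formation and growth; survival after 24 h exposure recorded, and values reflect the lowest concentration producing an effect.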

Series [2] relates to mpo:GFP zebrafish embryos (neutrophil migration to the wound site). As to the kind of experiment: mpo:GFP zebrafish fin-clip neutrophil migration (inflammation) assay. It counts as in vivo. On the set-up: mpo:GFP inflammation n (survived/tested): concentration or dose not given beside the values. The following applies: for minimal effective concentration: Danio rerio, Neutrophil, lowest concentration producing an effect, compounds not producing an effect shown at the highest evaluated concentration; for mpo:GFP inflammation n (survived/tested): embryos survived/tested at the concentration given. The essentials:
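Tg(mpo::EGFP) larvae tail-fin clipped (dorsal third removed) at 72 hpf, then immersed in compound or vehicle. Neutrophils migrating to the wound site counted from images 24 h later; at least 50% reduction scored as anti-inflammatory. Viability and morphology also assessed.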

The subject of a further series is TNF-α protein. In words: TNF-α protein level (ELISA) in LPS-challenged RAW 264.7 cells. Particulars: LPS 30 or 60 ng/mL, 24 h. On the set-up: key: NS=not significant; a “+” sign=anti-inflammatory or increased cell numbers; a “−” sign=cell toxicity or pro-inflammatory. The series is classed as cell-based, mouse. The method in brief:
(§1)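 RAW 264.7 cells pretreated 1 h with compound in DMSO vehicle, then challenged with LPS (30 or 60 ng/mL) for 24 h at 37° C. Conditioned-media nitrite by Griess (520 nm, sodium nitrite standard curve, 1.5 μM cutoff) in μM; mouse TNF-α by ELISA as pg/ml or % change from control.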
(An ELISA detects its analyte on a solid surface through an enzyme-linked reagent.)

Series [3] deals with nitrite levels in the culture media. As to the kind of experiment: Nitrite level (Griess Reagent System) in LPS-challenged RAW 264.7 cells. It counts as cell-based, mouse. Particulars: LPS 30 or 60 ng/mL, 24 h. The arrangement: key: NS=not significant; a “+” sign=anti-inflammatory or increased cell numbers; a “−” sign=cell toxicity or pro-inflammatory. The method in brief: as §1
On the technique in general: Nitrite, measured by Griess reagent, commonly stands in for NO production.

Another series deals with RAW 264.7 cells. As to the kind of experiment: Cell viability (CellTiter 96 AQueous One) of LPS-challenged RAW 264.7 cells. The series is classed as cell-based, mouse. The arrangement: key: NS=not significant; a “+” sign=anti-inflammatory or increased cell numbers; a “−” sign=cell toxicity or pro-inflammatory. The essentials: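 RAW 264.7 murine macrophages pretreated 1 h with compound or DMSO vehicle, then challenged with LPS (serotype 055:B5) at 30 or 60 ng/mL final for 24 h. After media replacement, viability measured by tetrazolium (MTS) conversion, absorbance at 490 nm, reported as O.D.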

Here are results for ten compounds from US11440880B2, “Thalidomide analogs and methods of use” (The USA, as represented by the Secretary, Department of …, priority 2015, dated 2022).

Consider `O=C1c2cccc([N+](=O)[O-])c2CN1C1C2CC3CC(C2)CC1C3` (stereo not shown) [Compound 82], for which the minimal effective concentration in series [1] and in series [2] was 5 µg/mL throughout. Moreover, in series [1], the “fli1:EGFP angiogenesis n (survived/tested)” value is given as 18/27. Besides, in series [2], the “mpo:GFP inflammation n (survived/tested)” value is listed as 8/22. For the same compound, the TNF-α entry in the series on TNF-α protein (1 μM) is “NS”; in the series with TNF-α protein (10 μM) it was “+”; in the series with TNF-α protein (30 μM), “+”. For the same compound, the Nitrite entry in series [3] (1 μM), in series [3] (10 μM) and in series [3] (30 μM) was “+” in each case. In addition, the Viability entry was “NS” in the series with RAW 264.7 cells (1 μM), “−” with RAW 264.7 cells (10 μM) and “−” with RAW 264.7 cells (30 μM).
`O=C1CCC(N2C(=O)c3cccnc3C2=O)C(=O)N1` (stereo not shown) [Compound 57]: the minimal effective concentration was 8.5 µg/mL in series [1] and 17 µg/mL in series [2]. In series [1], the “fli1:EGFP angiogenesis n (survived/tested)” value is given as 8/12. For the same compound, the “mpo:GFP inflammation n (survived/tested)” value in series [2] was 8/15. Moreover, the TNF-α result with TNF-α protein (1 μM), in the series on TNF-α protein (10 μM) and with TNF-α protein (30 μM) was “NS” each time. The Nitrite entry in series [3] (1 μM) is recorded as “NS”; in series [3] (10 μM), “+”; in series [3] (30 μM), “+”. Moreover, the Viability result in the series with RAW 264.7 cells (1 μM), with RAW 264.7 cells (10 μM) and with RAW 264.7 cells (30 μM) was “NS” each time.
Take `O=C1c2ccccc2CN1C12CC3CC(CC1C3)C2` [Compound 73]: the minimal effective concentration in series [1] and in series [2] was 10 µg/mL in each case. Besides, the “fli1:EGFP angiogenesis n (survived/tested)” value in series [1] is given as 6/12. The “mpo:GFP inflammation n (survived/tested)” value in series [2] was 7/13. Further, the TNF-α result in the series with TNF-α protein (1 μM) is given as “NS”; in the series with TNF-α protein (10 μM) it was “NS”; with TNF-α protein (30 μM), “+”. The Nitrite entry was “NS” in series [3] (1 μM), “+” in series [3] (10 μM) and “+” in series [3] (30 μM). Further, the Viability result with RAW 264.7 cells (1 μM) was “NS”; in the series on RAW 264.7 cells (10 μM), “NS”; in the series with RAW 264.7 cells (30 μM), “−”.
Turning to `FC(F)(F)c1ccnc(/N=C2/c3ccccc3CN2c2cc(C(F)(F)F)ccn2)c1` [Compound 67, N-(4-Trifluoromethylpyridin-2-yl)-1-imino(4-trifluoromethylpyridin-2-yl)-isoindoline], the minimal effective concentration worked out at 10 µg/mL in series [1] and 200 µg/mL in series [2]. In addition, the “fli1:EGFP angiogenesis n (survived/tested)” value in series [1] is listed as 13/22. The “mpo:GFP inflammation n (survived/tested)” value in series [2] was 6/15. Further, the TNF-α entry in the series with TNF-α protein (1 μM), with TNF-α protein (10 μM) and in the series with TNF-α protein (30 μM) was “NS” each time. For the same compound, the Nitrite entry in series [3] (1 μM) is listed as “NS”; in series [3] (10 μM), “NS”; in series [3] (30 μM), “+”. For the same compound, the Viability result with RAW 264.7 cells (1 μM), in the series with RAW 264.7 cells (10 μM) and in the series with RAW 264.7 cells (30 μM) was “NS” in each case.
For `CC1(C)S[C@@H]2[C@H](N3C(=O)c4ccccc4C3=O)C(=O)N2[C@H]1C(=O)O` [Compound 64], the minimal effective concentration in series [1] and in series [2] was 10 µg/mL throughout. Further, in series [1], the “fli1:EGFP angiogenesis n (survived/tested)” value was 8/15. Moreover, in series [2], the “mpo:GFP inflammation n (survived/tested)” value was 8/15. The TNF-α result in the series on TNF-α protein (1 μM), with TNF-α protein (10 μM) and with TNF-α protein (30 μM) was “NS” each time. For the same compound, the Nitrite entry in series [3] (1 μM), in series [3] (10 μM) and in series [3] (30 μM) was “NS” each time. Also, the Viability entry in the series with RAW 264.7 cells (1 μM), in the series on RAW 264.7 cells (10 μM) and with RAW 264.7 cells (30 μM) was “NS” in each case.
As to `O=C1c2ccccc2CN1c1nc2ccc(C(F)(F)F)cc2s1` [Compound 62], the minimal effective concentration in series [1] and in series [2] was 10 µg/mL each time. For the same compound, in series [1], the “fli1:EGFP angiogenesis n (survived/tested)” value is on record as 18/20. For the same compound, the “mpo:GFP inflammation n (survived/tested)” value in series [2] is 6/20. The TNF-α entry with TNF-α protein (1 μM), with TNF-α protein (10 μM) and in the series with TNF-α protein (30 μM) was “NS” each time. The Nitrite result in series [3] (1 μM) is given as “NS”; in series [3] (10 μM), “NS”; in series [3] (30 μM) it was “+”. The Viability entry in the series with RAW 264.7 cells (1 μM), with RAW 264.7 cells (10 μM) and in the series with RAW 264.7 cells (30 μM) was “NS” throughout.
On to `O=C1c2ccccc2C(=O)N1c1nc2ccc(C(F)(F)F)cc2s1` [Compound 59, 2-(6-Trifluoromethyl-benzothiazol-2-yl)-1H-isoindole-1,3(2H)-dione], for which the values for the minimal effective concentration in series [1] and in series [2] were 10 µg/mL and 100 µg/mL, respectively. Further, the “fli1:EGFP angiogenesis n (survived/tested)” value in series [1] is listed as 21/32. In addition, the “mpo:GFP inflammation n (survived/tested)” value in series [2] is 6/11. Further, the TNF-α entry is listed as “NS” in the series with TNF-α protein (1 μM), “NS” in the series with TNF-α protein (10 μM) and “+” in the series with TNF-α protein (30 μM). For the same compound, the values for the Nitrite result in series [3] (1 μM), in series [3] (10 μM) and in series [3] (30 μM) were “+”, “NS” and “+”, respectively. Also, the Viability entry with RAW 264.7 cells (1 μM), in the series with RAW 264.7 cells (10 μM) and in the series with RAW 264.7 cells (30 μM) was “NS” throughout.
For the compound `O=C1c2ccccc2CN1C12CC3CC(CC(C3)C1)C2` [Compound 69], the figures for the minimal effective concentration in series [1] and in series [2] were 10 µg/mL and 200 µg/mL, respectively. For the same compound, in series [1], the “fli1:EGFP angiogenesis n (survived/tested)” value is given as 6/14. Moreover, in series [2], the “mpo:GFP inflammation n (survived/tested)” value is on record as 8/17. Further, the TNF-α entry in the series on TNF-α protein (1 μM), in the series on TNF-α protein (10 μM) and in the series with TNF-α protein (30 μM) was “NS” each time. Further, the Nitrite result in series [3] (1 μM), in series [3] (10 μM) and in series [3] (30 μM) was “NS” throughout. The Viability result with RAW 264.7 cells (1 μM), in the series on RAW 264.7 cells (10 μM) and in the series on RAW 264.7 cells (30 μM) was “NS” each time.
With `Nc1cccc2c1CN(C13CC4CC(CC1C4)C3)C2=O` [Compound 85], the minimal effective concentration stood at 10 µg/mL in series [1] and 100 µg/mL in series [2]. Moreover, in series [1], the “fli1:EGFP angiogenesis n (survived/tested)” value is on record as 7/20. For the same compound, in series [2], the “mpo:GFP inflammation n (survived/tested)” value is listed as 11/20. The TNF-α entry in the series on TNF-α protein (1 μM), in the series with TNF-α protein (10 μM) and with TNF-α protein (30 μM) was “NS” in each case. Moreover, the Nitrite entry in series [3] (1 μM) is given as “NS”; in series [3] (10 μM), “NS”; in series [3] (30 μM) it was “−”. Also, the Viability entry in the series on RAW 264.7 cells (1 μM), in the series with RAW 264.7 cells (10 μM) and in the series on RAW 264.7 cells (30 μM) was “NS” each time.
As for `O=C1c2ccccc2CN1C1C2CC3CC(C2)CC1C3` (stereo not shown) [Compound 72, 2,3-Dihydro-2-(tricyclo[3.3.1.1^3,7]dec-2-yl)-1H-isoindol-1-one], the minimal effective concentration in series [1] was found to be 200 µg/mL; in series [2], 10 µg/mL. For the same compound, in series [1], the “fli1:EGFP angiogenesis n (survived/tested)” value was 9/20. For the same compound, the “mpo:GFP inflammation n (survived/tested)” value in series [2] is listed as 6/15. Further, the TNF-α result with TNF-α protein (1 μM) is recorded as “+”; in the series with TNF-α protein (10 μM), “NS”; with TNF-α protein (30 μM) it was “+”. For the same compound, the figures for the Nitrite result in series [3] (1 μM), in series [3] (10 μM) and in series [3] (30 μM) were “NS”, “NS” and “+”, respectively. For the same compound, the Viability entry is given as “+” in the series on RAW 264.7 cells (1 μM), “NS” in the series on RAW 264.7 cells (10 μM) and “−” in the series on RAW 264.7 cells (30 μM).

For orientation: minimal effective concentration means the smallest amount tested that counted as effective.
